Data taken from patent US20250092353A1, “COMMENSAL FUNGUS AND USES THEREOF” (YEDA RESEARCH AND DEVELOPMENT CO. LTD., priority 2022, published 2025).

Key:
C2BBe1 cells = experiment: Epithelial cell co-culture cytotoxicity (LDH assay); assay type: cell-based
Experimental: Quantification of cytotoxicity (LDH assay). Differentiated C2BBe1 cells in 96-well plates were infected for a defined time period with 10^4 C. albicans, S. cerevisiae and K. weizmannii. cells/well. After coincubation, epithelial damage was quantified by measuring LDH release using a cytotoxicity detection kit (Roche) according to the manufacturer's instructions.

[1] = test system: C. albicans SC5314 (ENO1-GFP); experiment: In vivo competition with C. albicans in Abx-treated SPF mice (co-inoculation, cohousing)
Source text: FIGS. 3A-3M include fluorescent micrographs, graphs, and a scheme, showing K. weizmannii competition with C. albicans in colonized animals. (3A) A representative picture of a far-red fluorescent reporter Kazachstania strain (K. weizmannii ENO1-Mirf). (3B-C) Recoverable fecal K. weizmannii in colonized wild-type animals (without antibiotics) one and six months after single oral K. weizmannii ENO1-Mirf inoculation. (3D) Flow cytometric analysis of C. albicans SC5314 (ENO1-GFP), K. weizmannii (ENO1-Mirf), and mixed cultures used for oral inoculation (3E). […] Quantification (n=3-5 mice per group, 4 independent experiments) (see (3D). (3H) Schematic non-limiting outline of a co-housing experiment. (3I) Representative flow cytometric feces analysis of colonized mice 4 weeks after initial colonization (before cohousing) and 2 weeks after co-housing. (N=4 per group). (3J) Percentages of respective labelled fungi in feces of C. albicans, K. weizmannii colonized animals, before and after co-housing in Abx presence (except for day 48 and 58); antibiotics withdrawal on day 46 of cohousing, n=4 per group, representative of 2 independent experiments. (3K) Flow cytometric analysis of feces of germfree animals 1 week after oral inoculation of single fungi cultures or mixed C. albicans SC5314 (ENO1-GFP)/K. weizmannii (ENO1-Mirf) culture. […]

[2] = Biolog Phenotype MicroArrays for chemical sensitivity (PM21-PM25); assay type: cell-based; details: compared to C. albicans; normalized AUC of growth
Experimental: FIGS. 2A-2F include micrographs, graphs, a plot, and a curve showing in vitro culture characteristics of K. weizmannii. (2A) Representative images of C. albicans and K. weizmannii in liquid media in presence of filament-inducing conditions, n=3 independent experiments. (2B) A graph showing largest differences in growth between K. weizmannii and C. albicans with different carbon sources, based on a z-score > or <2. Differences were calculated using the normalized area under the curve (AUC) of K. weizmannii and C. albicans. Normalization of the AUC are based on the growth of both species with glucose. Size of data points corresponds to the normalized AUC of K. weizmannii with the corresponding carbon source. All measurements were done using the Biolog Phenotype MicroArrays in biological triplicates. […] The data points are color-coded according to the different types of carbon sources. (2C) A graph showing the largest differences in growth between K. weizmannii and C. albicans with different nitrogen sources, based on a z-score greater than or less than 2. Differences were calculated using AUC of K. weizmannii and C. albicans and normalized based on the growth of both species with glutamine. […] GFP expressing C. albicans was detected by flowcytometry to discriminate between fungi, n=2 independent experiments.

Kazachstania weizmannii [K. weizmannii]
protection from C. albicans-induced EC damage (C2BBe1 cells; co-infection with K. weizmannii and C. albicans): did not prevent EC damage | EC damage / viability (LDH release) (C2BBe1 cells; single fungus co-culture): did not affect EC viability | C. albicans colonization after co-inoculation ([1]; Abx-treated mice, 1:1 mixture of K. weizmannii and C. albicans): Candida colonization was prevented | displacement of established commensal C. albicans ([1]; mice stably colonized with C. albicans (on Abx) cohoused with K. weizmannii-harboring mice): progressive rapid ousting of C. albicans | resistance to chemical inhibitors, azoles [2]: relative resistance to propriconazole and fucinazole | sensitivity to chemical inhibitors, chlorides and bromides [2]: more sensitive to chlorides and bromides
